From PMC4387075 (Neuropharmacology, 2015)
Entries after “also recorded” stand apart in the source; their conditions may differ. Where two headings read alike, the source gives them in different places.

How the values were obtained:
[1] = tested on: cerebellar granule cells; test: Cell viability; conditions: for IC50: read-out: IC50 for inhibition of glutamate neuroprotection, 1 mM glutamate in K5; for effect of agonist on viability of granule cells in K5: K5, 16 hours, MTT; for maximum effect on granule cell viability: percent of viability in K25 cultures, K5 media, 16 hours; for effect of antagonist on NMDA-induced increase in granule cell viability: 1 mM NMDA in K5, MK801 1 μM, JNJ16259685 300 μM
[2] = target: mGlu1 receptors (Rattus norvegicus, UniProt P23385); test: PI hydrolysis; type: cell-based; conditions: for PI hydrolysis Emax, % glu: efficacy as percentage of glutamate efficacy, mean +/- 95% confidence interval; for agonist bias between PI hydrolysis and neuroprotection: from Emax values of both responses (Figure 7); for effect of antagonist on PI hydrolysis stimulated by quisqualate, DHPG and ACPD: agonists 100 μM, JNJ16259685 300 μM, CPCCOEt 200 μM, MPEP 10 μM
mGlu1 receptors, sequence (P23385 19-1199): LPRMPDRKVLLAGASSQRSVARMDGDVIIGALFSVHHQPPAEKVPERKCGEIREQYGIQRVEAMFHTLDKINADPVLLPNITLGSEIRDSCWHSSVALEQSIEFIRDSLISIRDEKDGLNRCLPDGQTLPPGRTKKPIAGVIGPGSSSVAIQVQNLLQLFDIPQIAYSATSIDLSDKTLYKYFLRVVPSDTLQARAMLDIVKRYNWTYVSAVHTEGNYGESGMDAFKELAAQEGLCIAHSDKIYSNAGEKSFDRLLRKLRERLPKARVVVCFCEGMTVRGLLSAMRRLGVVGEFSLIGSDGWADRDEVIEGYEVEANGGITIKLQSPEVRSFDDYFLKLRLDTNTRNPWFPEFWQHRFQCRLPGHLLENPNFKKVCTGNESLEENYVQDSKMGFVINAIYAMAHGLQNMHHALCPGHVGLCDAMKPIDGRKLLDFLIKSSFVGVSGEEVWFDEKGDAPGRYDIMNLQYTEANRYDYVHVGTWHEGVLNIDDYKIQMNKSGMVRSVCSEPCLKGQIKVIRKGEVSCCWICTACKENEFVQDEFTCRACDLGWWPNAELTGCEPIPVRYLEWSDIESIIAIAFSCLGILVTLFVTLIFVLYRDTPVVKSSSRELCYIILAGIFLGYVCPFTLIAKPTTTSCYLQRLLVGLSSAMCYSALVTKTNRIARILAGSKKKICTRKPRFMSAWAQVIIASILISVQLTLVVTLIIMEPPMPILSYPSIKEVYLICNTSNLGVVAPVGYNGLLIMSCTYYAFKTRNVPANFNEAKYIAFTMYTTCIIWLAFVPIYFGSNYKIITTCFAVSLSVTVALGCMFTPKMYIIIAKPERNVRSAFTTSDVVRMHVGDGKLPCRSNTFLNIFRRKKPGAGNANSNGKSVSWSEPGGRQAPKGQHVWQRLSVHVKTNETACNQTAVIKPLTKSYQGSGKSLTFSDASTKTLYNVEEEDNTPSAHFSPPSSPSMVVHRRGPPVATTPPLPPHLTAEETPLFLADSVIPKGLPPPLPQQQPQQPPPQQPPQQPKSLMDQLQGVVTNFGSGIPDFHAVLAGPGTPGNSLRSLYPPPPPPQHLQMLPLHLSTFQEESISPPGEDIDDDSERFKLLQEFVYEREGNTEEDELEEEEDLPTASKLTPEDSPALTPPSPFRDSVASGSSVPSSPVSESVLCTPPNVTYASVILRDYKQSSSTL

[3] = tested on: mGlu1 receptor-expressing CHO cells; conditions: ref Emery et al., 2012, cited from earlier work; for ERK phosphorylation or protection: transfected CHO cells; for protection from serum starvation: mGlu1 receptor-expressing CHO cells
[4] = tested on: mGlu1 receptor; conditions: mGlu1 receptor-expressing CHO cells; ref Emery et al., 2012; cited from earlier work
[5] = read-out: PI hydrolysis EC50, mean (95% confidence interval)

7-(Hydroxyimino)cyclopropa[b]chromen-1a-carboxylate ethyl ester [CPCCOEt]
IC50 [1]: 123 µM

N[C@@]1(C(=O)O)CC[C@@H](C(=O)O)C1 [ACPD, (1S,3R)-1-aminocyclopentane-1,3-dicarboxylic acid]
effect of agonist on viability of granule cells in K5 [1]: not significantly increased
maximum effect on granule cell viability [1]: 49 ± 5%
agonist type for PI hydrolysis compared to glutamate [2]: partial agonists
PI hydrolysis at 100 μM agonist compared to Locke's media only [2]: significant increase
PI hydrolysis Emax, % glu [2]: 66 ± 1.4 % glu
agonist bias between PI hydrolysis and neuroprotection [2]: completely biased towards PI hydrolysis

N[C@@H](CC(=O)O)C(=O)O [Aspartate, aspartate]
effect of agonist on viability of granule cells in K5 [1]: prevented
EC50 [2]: 19 µM
PI hydrolysis Emax, % glu [2]: 103 ± 7.8 % glu
agonist bias between PI hydrolysis and neuroprotection [2]: balanced agonists

N[C@@H](CS(=O)(=O)O)C(=O)O [Cysteic acid]
effect of agonist on viability of granule cells in K5 [1]: prevented
PI hydrolysis Emax, % glu [2]: 87 ± 4.2 % glu
EC50 [2, 5]: 22 µM

N[C@@H](CS(=O)O)C(=O)O [Cysteine sulfinic acid]
effect of agonist on viability of granule cells in K5 [1]: prevented
PI hydrolysis Emax, % glu [2]: 82 ± 10 % glu
EC50 [2, 5]: 29 µM

NC(C(=O)O)c1cc(O)cc(O)c1 (stereo not drawn) [DHPG, 3,5-dihydroxyphenylglycine]
effect of agonist on viability of granule cells in K5 [1]: not significantly increased
EC50 [2]: 23 µM
agonist type for PI hydrolysis compared to glutamate [2]: partial agonists
PI hydrolysis at 100 μM agonist compared to Locke's media only [2]: significant increase
PI hydrolysis Emax, % glu [2]: 69 ± 3.7 % glu
agonist bias between PI hydrolysis and neuroprotection [2]: completely biased towards PI hydrolysis
ERK phosphorylation or protection [3]: do not stimulate

N[C@@H](CCC(=O)O)C(=O)O [Glutamate, glutamate]
effect of agonist on viability of granule cells in K5 [1]: prevented
maximum effect on granule cell viability [1]: 65%

N[C@@H](CCS(=O)(=O)O)C(=O)O [Homocysteic acid]
effect of agonist on viability of granule cells in K5 [1]: prevented
PI hydrolysis Emax, % glu [2]: 84 ± 7.4 % glu
EC50 [2, 5]: 29 µM

COC1CCC(C(=O)c2ccc3nc4c(cc3c2)CCCO4)CC1 (stereo not drawn) [JNJ16259685]
effect of antagonist on NMDA-induced increase in granule cell viability [1]: blocked
IC50 [1]: 19.8 µM
effect of antagonist on PI hydrolysis stimulated by quisqualate, DHPG and ACPD [2]: significantly decreased

C[C@]12N[C@H](Cc3ccccc31)c1ccccc12 [MK801]
effect of antagonist on NMDA-induced increase in granule cell viability [1]: significantly inhibited

Cc1cccc(C#Cc2ccccc2)n1 [MPEP]
effect of antagonist on PI hydrolysis stimulated by quisqualate, DHPG and ACPD [2]: no effect

CN[C@H](CC(=O)O)C(=O)O [NMDA, N-methyl-D-aspartate]
maximum effect on granule cell viability [1]: 73%

N[C@@H](Cn1oc(=O)[nH]c1=O)C(=O)O [Quisqualate, quisqualate]
effect of agonist on viability of granule cells in K5 [1]: not significantly increased; also recorded: no efficacy
agonist type for PI hydrolysis compared to glutamate [2]: full agonist
PI hydrolysis at 100 μM agonist compared to Locke's media only [2]: significant increase
PI hydrolysis Emax, % glu [2]: 109 ± 7.8 % glu
agonist bias between PI hydrolysis and neuroprotection [2]: completely biased towards PI hydrolysis
ERK phosphorylation or protection [3]: do not stimulate

O=C(O)CCCC(=O)O [glutaric acid]
protection from serum starvation [3]: able to protect
efficacy for PI hydrolysis [4]: no efficacy

O=C(O)CCC(=O)O [succinic acid]
protection from serum starvation [3]: able to protect
efficacy for PI hydrolysis [4]: no efficacy
